Assay results reported in patent publication US8540967B2, “Porphyrazine optical and dual optical/MR contrast and therapeutic agents” (Hoffman/Barrett, L.L.C., priority 2008, dated 2013).

How the values were obtained:
[1] = system: A549 lung carcinoma cells; assay: Confocal NIR fluorescence microscopy of cellular uptake, tumor cells; type: cell-based; details: confocal images; compound 247: 50 μM, 24 hr stain
Protocol: (§1) Cellular uptake monitored by confocal fluorescence microscopy is dependent on the pz's overall amphiphilicity, and qualitative analysis indicates preferential uptake into tumor cells (e.g., A549) over non-tumorigenic cells (e.g., WI38 VA13).
(§2) The MTT test was performed using the procedure disclosed in S. Lee et al., Metal-Based Drugs (2008), pages 391-418.

[2] = system: WI38 VA13 non-tumorigenic cells; assay: Confocal NIR fluorescence microscopy of cellular uptake, non-tumorigenic cells; type: cell-based; details: confocal images; 50 μM
Protocol: as §1, §2
Therefore, compound 270, a pz having a single appended Gd^3+, was synthesized.

A549 tumor cells = assay: MTT assay, tumor cells; type: cell-based; details: 50 μM
Protocol: as §2

[3] = system: WI38 VA13 non-tumorigenic cells; assay: MTT assay, non-tumorigenic cells; type: cell-based; details: 50 μM
Protocol: as §2

[4] = system: A549 lung carcinoma cells; assay: Time course studies of pz accumulation and cell viability; type: cell-based
Protocol: Time course studies also were performed using compounds 241, 243, 244, 246, 247, 249, 254, and 255 using A549 lung carcinoma cells and W138 VA13 non-tumorigenic cells. The studies confirmed accumulation of a present pz in tumor cells and a decrease in tumor cell viability.

[5] = system: PC3-EGFP (human prostate tumor cells stably expressing GFP) tibia tumors; assay: Biodistribution by NIR fluorescence imaging in mice with tibia tumors; type: in vivo, mouse
Protocol: In one experiment, male FVB/n5 Rag-1−/− mice were injected with […] PC3-EGFP (human prostate tumor cells stably expressing GFP) in the tibia four weeks prior to imaging with pzs. Prior to imaging, the mice were anesthetized with 4% isoflurane and injected with 20 nmol of compound 247 (150 μL, 7.5% DMSO) intravenously via the tail vein. Fluorescent images were acquired immediately and after 4, 24, and 42 hours. […] GFP images were acquired using excitation wavelengths of 465 nm and fluorescence was detected at 535 nm. X-ray images were acquired for anatomical co-registration.
The mice subsequently were euthanized, legs were excised, and images were acquired without the surrounding skin and muscle.

[6] = system: MDA-MB-231-RFP subcutaneous tumors; assay: NIR fluorescence imaging of subcutaneous tumors in female SCID mice; type: in vivo, mouse
Text: In a second experiment to verify that compound 247 robustly and reproducibly localizes in tumors of more than one tissue origin, female SCID mice were subcutaneously injected with MDA-MB-231-RFP cells stably expressing Red Fluorescent Protein (RFP). This approach provides excellent confirming information because (a) palpable subcutaneous tumors are easily identified prior to imaging as opposed to bone tumors which are difficult to detect non-invasively; (b) RFP-expressing tumors are visible through the skin as opposed to GFP tumors, which require removal of skin prior to imaging; (c) pz localization in the tumor is visible during non-invasive whole animal imaging; and (d) tumors are easily harvested, fixed, and processed for histochemical and biochemical analyses. Five mice were dosed with 20 nmol of compound 247 in 7.5% DMSO, administered intravenously. The […] wavelength used for RFP excitation was 535 nm with emission detected using a 565-615 nm bandpass filter. Compound 247 was excited using a 625 nm bandpass and emission detected at 700 nm. […] Therefore, there is no penetration of undesired signal during imaging. Images were acquired for RFP, as well as pz fluorescence, after 5, 24, 32 and 48 hours. […] With this remarkable contrast, compound 247 therefore acts as a ‘turn-on’ NIR-fluorescence tumor imager. At the conclusion of the 48 hour experiment, the tumors were excised and processed for antibody staining. Slices were stained for nuclei (DAPI) to determine the localization of pzs within heterogeneous 3-dimensional tumors. […] The important benefit of having the RFP and pz survive tissue processing is noted.

[7] = Relaxivity (r1) of Gd-pz conjugates; type: physicochemical
Protocol: Dual-mode contrast agents were generated by coupling pz optical agents with gadolinium-based (Gd^3+) MR agents in order to permit co-registration of optical and MR image data. The synthetic versatility of the present pz structure allows a variety of strategies for attaching multiple MR imaging agents, for example, Gd^3+ chelates, to the pz structure. […] The relaxivity of a Gd^3+ chelate attached to a pz ranges from about 10 to about 14 mM-1s-1/Gd (Table 1).
In the preparation of Gd-pzs, ‘click’ chemistry was used to append 4 and 8 Gd^3+ chelates to an M[pz(A2; B2)] pz, leading to the Gd8-Mpz conjugate (M=Zn, Cu) shown above, and analogous Gd-4-Mpz conjugates having one chelate per pz ‘arm’. […] This is significant because the higher the observed relaxivity of the conjugate, the greater its efficacy as an in vivo MR contrast agent. Importantly, these conjugates are suitable as dual-mode contrast agents because the presence of as many as eight Gd agents has no significant influence on the pz luminescence for the M=Zn complex. In addition, the pz-Gd conjugates are water soluble and can be administered to rodents without the addition of DMSO.

For `CO[C@]1(C)Oc2c(c3nc4nc(nc5[nH]c(nc6nc(nc2[nH]3)-c2c(OC(C)C)ccc(OC(C)C)c2-6)c2c5O[C@@](C)(OC)[C@](C)(OC)O2)-c2c(OC(C)C)ccc(OC(C)C)c2-4)O[C@@]1(C)OC` [Compound 247], which “Uptake/accumulation in A549 lung carcinoma cells (NIR fluorescence)” value [1] is on record?
The value was “excellent uptake”.

And the “Uptake into WI38 VA13 cells (NIR fluorescence)” value [2]?
Its value is “lesser uptake”.

And the “Toxicity to tumor cells (MTT)” value (A549 tumor cells)?
Its value is “mildly toxic”.

And the “Toxicity to non-tumorigenic cells (MTT)” value [3]?
Its value is “non-toxic”.

And the “Accumulation of pz in tumor cells” value [4]?
The value was “accumulation”.

And the Tumor cell viability [4]?
The Tumor cell viability was “decrease”.

What about the “pz fluorescence location after 4 hours” value ([5]; 20 nmol i.v. tail vein, 4 hours) of the same compound?
Its value is “seen in the liver”.

What about the “pz fluorescence location after 24 hours” value ([5]; 20 nmol i.v. tail vein, 24 hours) of the same compound?
The value was “highly localized in the mouse tibia tumors”.

And the “Red fluorescence location in excised legs” value ([5]; 20 nmol, excised legs without skin and muscle, overlay with GFP)?
The value was “localized in the tumors”.

And the “Retention in tumor-free tibia” value ([5]; mouse 3 without tumor)?
The value was “not non-specifically retained in the bones”.

What about the “Time until pz fluorescence detectable in tumor” value ([6]; 20 nmol i.v. in 7.5% DMSO) of the same compound?
The value was ≤ 5 h.

What about the “pz fluorescence intensity in tumor over time” value ([6]; 20 nmol i.v., over the 48 hour experiment) of the same compound?
Its value is “increased dramatically”.

What about the “pz fluorescence in other organs or tissues” value ([6]; 20 nmol i.v., up to 48 hours) of the same compound?
The value was “no pz fluorescence in other mouse organs or tissues”.

And the “Accumulation in MDA-231 tumors in vivo” value ([6]; 20 nmol tail vein, 5 to 48 hours)?
Its value is “accumulates over time”.

What about the “Localization within excised tumor sections” value ([6]; tumors excised at 48 hours, DAPI-stained slices) of the same compound?
Its value is “precise colocalization of compound 247 with the tumor cytosol”.

Which “Relaxivity r1/Gd” value ([7]; per Gd) does the source give for `O=C([O-])CN1CCN(CC(=O)[O-])CCN(CC(=O)O)CCN(CC(=O)[O-])CC1.[Gd+3]` [Gd-DOTA, gadolinium tetrazacyclododecanetetraacetic acid] here?
Its value is 3.2 mM⁻¹ s⁻¹.

And the “Relaxivity r1 (molecular relaxivity)” value ([7]; per molecule)?
Its value is 3.2 mM⁻¹ s⁻¹.
